Key:
[1] = tested on: immune-competent C57Bl/6 mice; assay: PFO on spheres with mIL-10 secreting ARPE-19 cells and glucocorticoid particles implanted in the peritoneum of mice; format: in vivo; settings: mIL-10 secreting ARPE-19 cells, explanted at 28 days, FIGS. 5C-5L
[2] = tested on: immune-competent C57Bl/6 mice; assay: PFO induction on spheres with GLA-secreting human cells and drug particles implanted in the peritoneum of mice; format: in vivo; settings: explanted after 20 days; for PFO induction on explanted spheres (brightfield micrographs): GLA-secreting human cells co-encapsulated with drug particles, peritoneum; for computer aided opacity scoring of PFO induction: FIG. 4B
Source text: GLA-secreting human cells were co-encapsulated with particles of the indicated drug and implanted in the peritoneum of immune-competent C57Bl/6 mice.
GLA-secreting human ARPE-19 cells were co-encapsulated with or without TAH particles into spheres that were then implanted in the peritoneum of immune-competent C57Bl/6 mice.

[3] = Release of soluble drug from alginate spheres containing drug particles, incubated in Normosol; format: physicochemical; settings: 1 ml Normosol, 37 C; over a 62 (Cyclosporine A) and 32 (TAH) day period respectively; FIG. 1B, 2B
Source text: Cyclosporine A particles and Triamcinolone Hexacetonide (TAH) particles were encapsulated in the inner compartment of two compartment alginate hydrogel capsules (“spheres”).

[4] = tested on: immune-competent C57Bl/6 mice; assay: In vivo hGLA production and viability of GLA-secreting human cells co-encapsulated with TAH crystals, implanted in mice
Protocol: GLA-secreting human cells were co-encapsulated with TAH crystals into spheres that were then implanted in the peritoneum of immune-competent C57Bl/6 mice. The amount of hGLA produced by the spheres (e.g., devices) in vivo at site of implantation and in systemic circulation was measured.

[5] = tested on: immune-competent Sprague Dawley rats; assay: PFO on spheres with FF particles and ARPE-19 cells implanted in the peritoneum of rats; format: in vivo; settings: unmodified ARPE-19 cells or cells secreting one of two parathyroid hormone fusion proteins, 21 days, data not shown
Source text: In a third experiment, spheres co-encapsulating FF particles and either unmodified human ARPE-19 cells or ARPE-19 cells genetically modified to secrete one of two different fusion proteins comprising human parathyroid hormone were implanted in the peritoneum of immune-competent Sprague Dawley rats (five rats per group).

[6] = 20 days post-implantation, FIG. 6

Row | Compound | PFO on explanted spheres [1] | PFO induction on explanted spheres (brightfield micrographs) [2] | computer aided opacity scoring of PFO induction [2] | other results
1 | C[C@@H]1C[C@H]2[C@@H]3CCC4=CC(=O)C=C[C@]4(C)[C@@]3(Cl)[C@@H](O)C[C@]2(C)[C@@]1(OC(=O)c1ccco1)C(=O)CCl [MF, mometasone furoate] | minimal to no PFO | – | – | –
2 | COc1c(C)c2c(c(O)c1C/C=C(\C)CCC(=O)OCCN1CCOCC1)C(=O)OC2 [MMF] | – | extensive PFO induction | no statistically significant decrease in PFO induction | –
3 | CC(C)(C)CC(=O)OCC(=O)[C@@]12OC(C)(C)O[C@@H]1C[C@H]1[C@@H]3CCC4=CC(=O)C=C[C@]4(C)[C@@]3(F)[C@@H](O)C[C@@]12C [TAH, triamcinolone hexacetonide] | minimal to no PFO | completely prevented induction of PFO | – | soluble drug released from the spheres into the Normosol solution [3]: extended release; hGLA in plasma [4, 6]: Significant levels of hGLA; hGLA in the peritoneal lavage [4, 6]: Significant levels of hGLA; viability in vivo of co-encapsulated GLA-secreting human cells ([4]; retrieved spheres, over a course of 20 days, data not shown): maintained their viability
4 | C[C@@H]1CCN(C(=O)CC#N)C[C@@H]1N(C)c1ncnc2[nH]ccc12 [Tofactitinib] | – | extensive PFO induction | no statistically significant decrease in PFO induction | –
5 | fluticasone furoate [FF] | minimal to no PFO | – | – | PFO on explanted spheres [5]: minimal to no PFO
6 | fluticasone propionate [FP] | minimal to no PFO | – | – | –

Source: patent US20250000788A1, “BIOCOMPATIBLE DEVICES FOR CELL-BASED THERAPIES AND RELATED METHODS” (SIGILON THERAPEUTICS, INC., priority 2021, published 2025)
